From patent US8679478B2, “Methods of lysosomal storage disease therapy” (Duke University, priority 2010, dated 2014) come the findings set out here.

Holding throughout (format): in vivo, mouse
Assay [1] relates to GAA-KO mice. The assay can be described thus: Rotarod testing, liver-targeted gene therapy plus clenbuterol. The protocol: (§1) FIG. 4A-4B depicts enhanced Rotarod performance and weight gain following liver-targeted gene therapy plus clenbuterol treatment. The GAA-KO mice (5 per group) were injected with AAV-LSPhGAA (2×10^10 vector particles/mouse). Vector treated mice were treated with clenbuterol or untreated. Non-vector treated GAA-KO mice were treated with clenbuterol or untreated to serve as controls. Mice were euthanized for tissue analysis 4 weeks after vector injection. […] Mean+/−standard deviation are shown. Statistically significant differences indicated (*=p<0.05; **=p<0.01).
(§2) For in vivo analysis of AAV vectors, stocks were administered intravenously (via the retroorbital sinus) in 3 month-old and 15 month-old GAA-KO mice, and to 3 month-old tolerant GAA-KO and DKO mice. Clenbuterol (30 μg/ml) was administered to groups of 3 month-old vector-injected and mock-injected male GAA-KO mice in drinking water for 28 days. At the indicated time points post-injection, tissue samples were obtained and processed as described below. All animal procedures were done in accordance with Duke University Institutional Animal Care and Use Committee-approved guidelines. GAA activity and glycogen content were analyzed essentially as described (Sun et al., Mol. Ther., 2005, 11:889-898; Sun et al., Mol. Ther., 2005, 11: 57-65). Rotarod testing was performed essentially as described (Sun, B. D. et al. 2005). […]

Assay [2] relates to GAA-KO mice. The assay can be described thus: Weight gain, liver-targeted gene therapy plus clenbuterol. The following applies: vector plus clenbuterol v. mock treatment; p=0.06. The protocol:
as §1, §2

The next assay deals with CI-MPR. The assay can be described thus: Western blot and densitometry of CI-MPR expression in skeletal muscle and brain. The following applies: following clenbuterol treatment. As for the experimental part:
Western blot detection of CI-MPR and control proteins, β-actin or glyceraldehydes-3-phosphate dehydrogenase (GAPDH) in the tissues of GAA-KO mice is shown, with molecular weights indicated. Each lane represents an individual mouse. Equivalent quantities of tissue homogenate were loaded for each mouse. […] Mean+/−standard deviation are shown. Statistically significant differences indicated (*=p<0.05; **=p<0.01).
(§3) For in vivo analysis of AAV vectors, stocks were administered intravenously (via the retroorbital sinus) in 3 month-old and 15 month-old GAA-KO mice, and to 3 month-old tolerant GAA-KO and DKO mice. Clenbuterol (30 μg/ml) was administered to groups of 3 month-old vector-injected and mock-injected male GAA-KO mice in drinking water for 28 days. At the indicated time points post-injection, tissue samples were obtained and processed as described below. All animal procedures were done in accordance with Duke University Institutional Animal Care and Use Committee-approved guidelines. GAA activity and glycogen content were analyzed essentially as described (Sun et al., Mol. Ther., 2005, 11:889-898; Sun et al., Mol. Ther., 2005, 11: 57-65). Rotarod testing was performed essentially as described (Sun, B. D. et al. 2005). Western blotting of hGAA was performed essentially as described (Amalfitano et al., Proc. Natl. Acad. Sci. USA, 1999, 96: 8861-8866) using the hGAA monoclonal antibody (courtesy of Genzyme Corp., Framingham, Mass.) and the CI-MPR antibody (catalog number GTX28093; Gene Tex, Irvine, Calif.).

For assay [3], the system named is GAA-KO mice. Put plainly: GAA activity in tissues, ERT plus clenbuterol. The following applies: ERT plus clenbuterol v. ERT alone. The protocol: FIG. 8A-8C depicts increased GAA uptake and increased glycogen clearance in GAA-KO mice following clenbuterol treatment and ERT. […] GAA-KO mice were administered four weekly doses of rhGAA (20 mg/kg), and treated with clenbuterol (n=6) or untreated (n=5). […] Mean+/−standard deviation are shown. Statistically significant differences indicated (*=p<0.05; **=p<0.01).
as §3
The efficacy from gene therapy was increased by β2 agonist stimulation from clenbuterol treatment, and this benefit might be expected to affect ERT in Pompe disease, as well. Therefore, groups of 3 month-old GAA-KO mice were treated with four weekly doses of rhGAA (20 mg/kg), with or without concurrent clenbuterol treatment.

Assay [4] concerns immune tolerant GAA-KO mice. The assay can be described thus: Rotarod testing, ERT plus β2 agonist (Example 6). To be noted: after 4 weeks of treatment; clenbuterol 6 mg/l drinking water plus ERT v. ERT alone. The protocol: GAA-KO mice were administered four weekly doses of rhGAA (20 mg/kg), and treated with medium dose clenbuterol (n=7), albuterol (n=4) or untreated (n=6 or 3). […] Mean+/−standard deviation are shown. P values indicate statistically significant differences (lines).
Two β2 agonists were evaluated in combination with ERT, clenbuterol and albuterol. The dose of clenbuterol was reduced 5-fold from the concentration used in Example 4, to 6 mg/l in drinking water, while albuterol was evaluated at the higher dose (30 mg/l in drinking water). Groups of 3 month-old immune tolerant GAA-KO mice (Raben et al., Human Mol. Genet., 2001, 10:2039-2047) were treated with four weekly doses of rhGAA (20 mg/kg body weight), with or without concurrent β2 agonist treatment.
Mice were sacrificed 7 days after the last injection. Selected tissues were collected for GAA enzyme activity and glycogen content analyses. […] GAA activity and glycogen content analyses, Rotarod testing, and Western blot detection of CI-MPR was performed essentially as described (Koeberl et al., Mol. Genet. Metab., 2011, 103:107-112. Wire hang testing was performed with a 0.5 cm mesh hardware cloth fixed to an 8 by 10 inch frame. Mice were placed on the wire mesh, which was slowly inverted 6 inches over a cage containing paper bedding. The latency, or time until the mouse fell into the cage, was recorded.

Assay [5] relates to immune tolerant GAA-KO mice. Put plainly: Glycogen content in tissues, ERT plus β2 agonist (Example 6). As for the experimental part:
Male GAA-KO mice were administered four weekly doses of 20 mg/kg body weight of rhGAA and sacrificed one week following the last injection. Groups of mice were treated with clenbuterol (n=6), albuterol (n=4) or untreated (n=6). Mice were euthanized for tissue analysis 5 weeks after initiation of ERT.
Cerebral and cerebellar hemispheres were analyzed 5 weeks following the initiation of ERT. Groups of mice were treated with clenbuterol (n=6), albuterol (n=4) or untreated (n=6).
Two β2 agonists were evaluated in combination with ERT, clenbuterol and albuterol. […] Groups of 3 month-old immune tolerant GAA-KO mice (Raben et al., Human Mol. Genet., 2001, 10:2039-2047) were treated with four weekly doses of rhGAA (20 mg/kg body weight), with or without concurrent β2 agonist treatment.
Mice were sacrificed 7 days after the last injection. Selected tissues were collected for GAA enzyme activity and glycogen content analyses. All animal procedures were done in accordance with Duke University Institutional Animal Care and Use Committee-approved guidelines. GAA activity and glycogen content analyses, Rotarod testing, and Western blot detection of CI-MPR was performed essentially as described (Koeberl et al., Mol. Genet. Metab., 2011, 103:107-112. Wire hang testing was performed with a 0.5 cm mesh hardware cloth fixed to an 8 by 10 inch frame. Mice were placed on the wire mesh, which was slowly inverted 6 inches over a cage containing paper bedding. The latency, or time until the mouse fell into the cage, was recorded.

Take `CC(C)(C)NCC(O)c1cc(Cl)c(N)c(Cl)c1` (stereo not drawn) [clenbuterol]: the Rotarod latency increase worked out at 26% in the assay with GAA-KO mice [1] (clenbuterol alone v. mock treatment, p=0.02) and 75% with GAA-KO mice [1] (vector plus clenbuterol (30 μg/ml drinking water) v. vector alone, 4 weeks, p<2×10^−5). For the same compound, the weight gain entry with GAA-KO mice [2] is reported as “trend toward greater weight gain”. Further, the “CI-MPR signal (densitometry of Western blots)” value in the assay on CI-MPR (EDL), in the assay with CI-MPR (cerebellum) and in the assay with CI-MPR (cerebrum) was “increased” each time. Further, the GAA activity entry is reported as “significantly increased” with GAA-KO mice [3] (gastrocnemius, p=0.04); “significantly increased” in the assay with GAA-KO mice [3] (liver, p<0.0001); “significantly increased” with GAA-KO mice [3] (spleen, p=0.002). Moreover, the Rotarod latency entry in assay [4] is on record as “significantly increased”. Besides, the Glycogen content entry is on record as “reduced significantly” in assay [5] (all striated muscles with the exception of tibialis anterior, clenbuterol plus ERT v. ERT alone) and “reduced significantly” in assay [5] (cerebellum, β2 agonist plus ERT v. ERT alone).
